According to patent US20150182482A1, “EPROTIROME FOR USE IN THE PREVENTION AND/OR TREATMENT OF HAIR DISORDERS AND COMPOSITIONS THEREOF” (DR. AUGUST WOLFF GMBH & CO. KG ARZNEIMITTEL, priority 2012, published 2015):
Entries after “also recorded” stand apart in the source; their conditions may differ. Where two headings read alike, the source gives them in different places.

Key:
human hair follicles [1] = settings: cited from earlier work
[2] = test system: human scalp hair follicles; experiment: HF cycle staging in human hair follicle organ culture; type: cell-based; settings: for hair cycle staging, macroscopic and microscopic, overall comparison: summary of the examples
Procedure: (§1) Normal human scalp skin was obtained from women undergoing routine face-lift surgery after informed consent.
(§2) Test system: Philpott model (Philpott et al., J. Cell. Mol. Life Sci., 1990, 97: 463-471)
(§3) Mircodissected anagen VI hair follicles in 3 or 4 groups (3 HFs/well) were cultured at 6 days in a 24-well plate with 500 μl Williams E medium (Biochrom) supplemented with 100 IU/ml penicillin, 10 μg/ml streptomycin (Gibco), 10 μg/ml insulin (Sigma), 10 ng/ml hydrocortisone (Sigma) and 2 mmol/1 L-glutamine (Invitrogen).
(§4) Eprotirome, TRIAC, PF-277343 (1 pM, 100 pM) or vehicle were administered once for each change of medium (i.e. every 48 h).
(§5) Anagen HFs and HFs were immediately embedded in Shandon Cryomatrix and snap frozen in liquid nitrogen. Six longitudinal sections of HFs were processed for immunohistological stainings.
HF cycle staging was carried out according to defined morphological criteria, and the percentage of HFs in anagen and early, mid, or late catagen was determined.

[3] = test system: human scalp hair follicles; experiment: Hair shaft elongation in human hair follicle organ culture (Philpott model); type: cell-based
Procedure: as §1, §3
Hair shaft length measurements of HFs were performed every second day on individual HFs using a Zeiss inverted binocular microscope with an eyepiece measuring graticule.

[4] = test system: hair matrix keratinocytes; experiment: Ki-67/TUNEL double staining, proliferation and apoptosis measurements; type: cell-based, human
Procedure: as §1, §3, §5
To evaluate apoptotic cells in co-localization with a proliferation marker Ki-67, a Ki-67/terminal dUTP nick-end labelling (TUNEL) double-staining method was used. […] TUNEL-positive cells were visualized by an antidigoxigenin fluorescein isothiocyanate-conjugated antibody (ApopTag kit), whereas Ki-67 was detected by a rhodamine-labelled goat antimouse antibody (Jackson ImmunoResearch, West Grove, Pa.). Negative controls were performed by omitting terminal deoxynucleotidyl transferase and the Ki-67 antibody. Counterstaining was performed with 4′,6-diamidino-2-phenylindole (DAPI) (Roche Molecular Biochemicals GmbH, Mannheim, Germany). Quantitative immunohistomorphometry was performed; Ki-67-, TUNEL-, or DAPI-positive cells were counted in a previously defined reference region of the HF matrix and epidermis, and the percentage of Ki-67/TUNEL-positive cells was determined.

[5] = cited from earlier work
MTCO1 = MTCO1 protein expression (immunoreactivity) in cultured hair follicles; type: cell-based, human
Procedure: as §1, §2, §3, §4, §5

[6] = test system: tyrosinase activity of hair follicles; experiment: Tyrosinase activity of cultured hair follicles; type: cell-based, human
Procedure: as §1, §2, §3, §4, §5

TGFβ2 = TGFβ2 immunoreactivity in cultured hair follicles; type: cell-based, human
Procedure: as §1, §2, §3, §4, §5

[7] = test system: human scalp hair follicles; experiment: Hair pigmentation, quantitative Masson-Fontana melanin staining of cultured hair follicles; type: cell-based; settings: for melanin content, overall comparison: summary of the examples
Procedure: as §1, §2, §3, §4, §5
For histochemical visualization of melanin, Masson-Fontana staining was performed on frozen sections. Melanin was stained as brown dots and the degree of pigmentation was assessed by quantitative Masson-Fontana as described (Ito et al., Br. J. Dermatol, 2005, 152: 623-631). This method is a very sensitive and reliable indicator of changes in melanin synthesis, as shown by standard tyrosinase expression and enzyme activity assays (Kauser et al, FASEB J. 2006, 20:882-95). Staining intensity was analyzed in a defined reference region of the HF pigmentary unit and, using the ImageJ software (National Institute of Health).

hair growth [8] = settings: mouse; cited from earlier work
hair growth [9] = settings: monkey; cited from earlier work
Stability = type: physicochemical
[10] = Penetration in human skin; type: in vitro ADME
CD rats = settings: topical; cited from earlier work
SKH-1 mice = settings: topical; cited from earlier work
[11] = test system: outer root sheath cells, dermal papilla cells, and fibrous sheath cells of hair follicles; settings: all these types of cells, significantly; cited from earlier work
human hair follicles [12] = settings: physiological level of free T3; cited from earlier work
alopecia areata = settings: topical; cited from earlier work
[13] = person two, after 6 days, macroscopically and microscopically
[14] = occipital scalp HFs, person two, 6 days culture
[15] = person two, 100 pM, anagen HFs and all HFs

Question: With `N[C@@H](Cc1cc(I)c(Oc2cc(I)c(O)c(I)c2)c(I)c1)C(=O)O` [T4, 3,5,3′,5′-tetraiodo-L-thyronine] as the molecule, how does the anagen duration (human hair follicles [1]) read?
Answer: prolong

Question: And the “apoptosis of hair matrix keratinocytes (Ki-67/TUNEL staining)” value (human hair follicles [1])?
Answer: inhibited

Question: And the “hair matrix keratinocyte proliferation (Ki-67/TUNEL staining)” value (human hair follicles [1])?
Answer: stimulated

Question: And the “hair shaft elongation in vitro” value (human hair follicles [1])?
Answer: did not translate to a significantly altered hair shaft elongation

Question: And the “melanin synthesis in human hair follicles” value (human hair follicles [1])?
Answer: stimulate

Question: With `CC(C)c1cc(Oc2c(Br)cc(NC(=O)CC(=O)O)cc2Br)ccc1O` [eprotirome, 3-[[3,5-dibromo-4-[4-hydroxy-3-(1-methylethyl)phenoxy]phenyl]amino]-3-oxo-propanoic acid] as the molecule, how does the “duration of anagen, macroscopically” value ([2]; person one) read?
Answer: no major effect

Question: And the hair cycle histomorphometry ([2]; person one)?
Answer: clear anagen-prolonging effect

Question: And the “number of anagen HFs” value [2, 13]?
Answer: significantly increased

Question: What about the “number of catagen HFs” value [2, 13] of the same molecule?
Answer: decreased

Question: What about the “hair cycle staging, macroscopic and microscopic, overall comparison” value (shortened to “hair cycle staging … overall comparison”) [2] of the same molecule?
Answer: able to prolong anagen and to inhibit catagen development; also recorded: clearly prolongs anagen

Question: And the hair shaft elongation ([3]; occipital scalp HFs, person one, both doses (1 pM, 100 pM))?
Answer: slightly stimulated

Question: What about the hair shaft elongation [3, 14] of the same molecule?
Answer: did not significantly affect

Question: And the “proliferation of the hair matrix keratinocytes (Ki-67)” value ([4]; person one, 100 pM)?
Answer: increased proliferation

Question: And the “apoptosis (TUNEL)” value ([4]; person two)?
Answer: no change

Question: What about the “proliferation (Ki-67) of hair matrix keratinocytes” value ([4]; person two) of the same molecule?
Answer: tendentially upregulated

Question: And the “proliferation of hair matrix keratinocytes, overall” value ([4]; summary of the examples)?
Answer: increased proliferation

Question: And the “effects on the heart” value ([5]; clinical trial in humans)?
Answer: did not provoke detectable effects

Question: And the safety and tolerability ([5]; clinical trial in humans)?
Answer: safe and well tolerated

Question: And the “lowering of total and LDL cholesterol levels” value ([5]; moderately overweight and hypercholesterolemic subjects)?
Answer: up to 40%

Question: And the MTCO1 immunoreactivity (MTCO1; person one)?
Answer: significantly up-regulates

Question: What about the MTCO1 protein expression (MTCO1; person two) of the same molecule?
Answer: no significant change

Question: And the tyrosinase activity ([6]; person one, 100 pM group)?
Answer: upregulated

Question: What about the “tyrosinase activity upregulation, significance” value ([6]; person one, 100 pM, all HFs) of the same molecule?
Answer: significant

Question: What about the tyrosinase activity [6, 15] of the same molecule?
Answer: slightly upregulated

Question: And the “tyrosinase activity, overall” value ([6]; summary of the examples)?
Answer: upregulation

Question: And the TGFβ2 immunoreactivity (TGFβ2; person one)?
Answer: significantly reduced

Question: What about the “TGFβ2 immunoreactivity reduction, concentration dependence” value (TGFβ2; person one, 100 pM) of the same molecule?
Answer: strongest effect

Question: What about the TGFβ2 immunoreactivity (TGFβ2; person two, 1 pM concentration group) of the same molecule?
Answer: significantly reduced

Question: What about the “expression of TGFβ2, overall” value (TGFβ2; summary of the examples) of the same molecule?
Answer: significant reduced expression

Question: What about the melanin content ([7]; person one, 100 pM, anagen HFs and all HFs) of the same molecule?
Answer: slightly increased

Question: What about the “melanin content increase, significance” value ([7]; person one, 100 pM, only anagen HFs) of the same molecule?
Answer: significant

Question: And the melanisation [7, 15]?
Answer: slightly increased

Question: What about the “melanin content, overall comparison” value [7] of the same molecule?
Answer: increased melanin content

Question: For `Cc1cc(-n2ncc(=O)[nH]c2=O)cc(C)c1Oc1ccc(O)c(Cc2ccc(F)cc2)c1` [PF-277343], which “macroscopic HF assessment (hair cycle staging)” value ([2]; person three, 1 pM) is on record?
Answer: prematurely induces catagen

Question: And the “quantitative hair cycle histomorphometry” value ([2]; person three, 1 pM and 100 pM)?
Answer: promoted premature catagen development

Question: What about the “hair cycle staging … overall comparison” value [2] of the same molecule?
Answer: caused hair follicles to enter the catagen phase prematurely

Question: And the “efficacy in hair growth model” value (hair growth [8])?
Answer: efficacious

Question: And the hair shaft elongation ([3]; occipital scalp HFs, person three, 1 pM)?
Answer: slight (not significant) tendency towards inhibition

Question: What about the “hair shaft elongation, overall comparison” value ([3]; summary of the examples) of the same molecule?
Answer: tendency of a slight inhibition

Question: What about the “efficacy in hair growth model” value (hair growth [9]) of the same molecule?
Answer: efficacious

Question: And the “proliferation (Ki-67) of hair matrix keratinocytes” value ([4]; person three)?
Answer: did not show effects

Question: What about the “apoptosis (TUNEL)” value ([4]; person three, 100 pM) of the same molecule?
Answer: slightly inhibited (not significant)

Question: And the MTCO1 protein expression (MTCO1; person three)?
Answer: no significant change

Question: What about the tyrosinase activity ([6]; person three, 100 pM, anagen HFs and all HFs) of the same molecule?
Answer: slightly upregulated

Question: And the “tyrosinase activity upregulation, significance” value ([6]; person three, 100 pM, only anagen HFs)?
Answer: significant

Question: And the TGFβ2 immunoreactivity (TGFβ2; person three, 100 pM concentration group)?
Answer: significantly reduced

Question: What about the melanisation ([7]; person three, 1 pM and 100 pM, all HFs) of the same molecule?
Answer: significantly decreased

Question: What about the melanin production ([7]; person three, 100 pM, only anagen HFs (significant)) of the same molecule?
Answer: strong reduction

Question: And the “melanin content, overall comparison” value [7]?
Answer: decrease in melanin content

Question: Which “anagen (prolongation)” value [2, 13] does the source give for `O=C(O)Cc1cc(I)c(Oc2ccc(O)c(I)c2)c(I)c1` [TRIAC, Triiodothyroacetic Acid] here?
Answer: prolonged anagen

Question: And the catagen development [2, 13]?
Answer: inhibited catagen development

Question: And the “hair cycle staging … overall comparison” value [2]?
Answer: able to prolong anagen and to inhibit catagen development

Question: And the stability (Stability)?
Answer: low stability

Question: And the “hair shaft elongation (inhibition), significance” value ([3]; occipital scalp HFs, person two, 1 pM)?
Answer: significant effect

Question: What about the hair shaft elongation [3, 14] of the same molecule?
Answer: slight inhibition

Question: And the “apoptosis (TUNEL)” value ([4]; person two)?
Answer: inhibited (not significant)

Question: And the “proliferation (Ki-67) of hair matrix keratinocytes” value ([4]; person two)?
Answer: slightly upregulated (not significant)

Question: And the MTCO1 protein expression (MTCO1; person two)?
Answer: no significant change

Question: And the “penetration in human skin” value [10]?
Answer: inferior penetration

Question: And the tyrosinase activity ([6]; person two, all HFs)?
Answer: downregulated

Question: What about the “tyrosinase activity downregulation, significance” value ([6]; person two, all HFs, 0.1 pM and 1 pM groups) of the same molecule?
Answer: significant

Question: And the “TGFβ2 immunoreactivity reduction, significance” value (TGFβ2; person two, 1 pM and 100 pM concentration groups)?
Answer: significant effect

Question: What about the TGFβ2 immunoreactivity (TGFβ2; person two, all concentrations) of the same molecule?
Answer: reduced

Question: What about the “hair follicle melanin content” value ([7]; person two, all HFs) of the same molecule?
Answer: No significant effects

Question: What about the “melanin content, overall comparison” value [7] of the same molecule?
Answer: no effects

Question: With `N[C@@H](Cc1cc(I)c(Oc2ccc(O)c(I)c2)c(I)c1)C(=O)O` [T3, 3,5,3′-triiodo-L-thyronine] as the molecule, how does the “epidermal proliferation, dermal thickening, and hair growth” value (CD rats) read?
Answer: stimulate

Question: What about the “epidermal proliferation, dermal thickening, and hair growth” value (SKH-1 mice) of the same molecule?
Answer: stimulate

Question: And the “proliferation and/or metabolism of hair follicle cell types” value [11]?
Answer: stimulated

Question: What about the “human hair survival in vitro” value (human hair follicles [12]) of the same molecule?
Answer: significantly enhanced

Question: What about the efficacy versus placebo (alopecia areata) of the same molecule?
Answer: not more effective than placebo

Question: What about the safety (alopecia areata) of the same molecule?
Answer: safe

Question: What about the anagen duration (human hair follicles [1]) of the same molecule?
Answer: prolong

Question: And the “apoptosis of hair matrix keratinocytes (Ki-67/TUNEL staining)” value (human hair follicles [1])?
Answer: inhibited

Question: And the “hair shaft elongation in vitro” value (human hair follicles [1])?
Answer: did not translate to a significantly altered hair shaft elongation

Question: And the “melanin synthesis in human hair follicles” value (human hair follicles [1])?
Answer: stimulate
